Columns and labels:
[1] = PAN-injury podocyte viability assay (Cell Titer-Glo); type: cell-based, human; conditions: human, no test compound, read-out: podocyte viability compared with untreated cells
Excerpt: (§1) Cell Culture. The human podocyte cell line (CIHP-1) is a […] isolated from human kidney. Podocytes are highly specialized, terminally differentiated cells with a complex cellular structure. They are a critical component of glomerular filtration. Cell cycle control, growth arrest and differentiation are key to the in vivo biology of podocytes. The conditionally immortalized podocyte cell line allows an in vitro process of maturation analogous to the development and maturation of podocytes in vivo. […] These include the novel podocyte proteins nephrin, podocin, CD2AP and synaptopodin. This robust cell line is extensively characterized and validated.
(§2) The growth medium of CIHP-1 cells (Ximbio) was RPMI 1640 with 10% fetal bovine serum (FBS), 1-fold of ITS (insulin-transferrin-selenium), and 1-fold Pen/Strep. The culture condition was 33° C. with 5% CO2. The cell detachment solution was Accutase® for 5 min at 33° C. The cell line passage ration was 1:3 every 3 or 4 days.
(§3) PAN-injury podocyte viability assay. Differentiated podocytes were either pretreated with dimethyl sulfoxide (DMSO) as vehicle, lobeglitazone, pioglitazone, rosiglitazone, or dexamethasone followed by puromycin aminonucleoside (PAN) treatment (5 μg/ml). Viability assays were performed after 3 or 5 days of treatments. […] For compound treatment, compounds were diluted to 20, 2, 0.2, 0.02 and 0.002 mM with DMSO. A volume of 1.8 μL of compounds was taken to 358.2 μL of culture medium and mixed. Media from plates were aspirated. A volume of 100 μL compound-added medium was added to each plate. Plates were placed in the incubator for 4 hours.
(§4) On day 0, CIHP-1 cells were seeded into two 96-well white plates using 5000 cell/well for 3 days (plate 1) or 2500 cell/well for 5 days (plate 2) treatment.
(§5) For compound treatment on Day 1, culture medium was aspirated. For each cell plate, 100 μl/well fresh medium with compounds was added for 4 hour. DMSO was used as control. After compound treatment for 4 hours, PAN was added to a final concentration of 5 μg/ml. No PAN treatment was used for the negative control. There was no medium change for the whole process.
(§6) On Day 4, for the first plate, Cell Titer-Glo (CTG) assay was used by adding 60 μl of CTG reagent into each well of the first plate, incubating at room temperature with shaking for 20 min, and then reading by the EnVision plate reader.
(§7) On Day 6, for the second plate, CTG assay was used by adding 60 μl of CTG reagent into each well of the second plate, incubating at RT with shaking for 20 min, and then reading by the EnVision plate reader.

[2] = test system: human podocyte cell line (CIHP-1); experiment: as above; type: cell-based; conditions: for CIHP-1 proliferation by CTG, percentage compared to DMSO control (without PAN): 4 h pretreatment
Excerpt: as §1, §2, §3, §4, §5, §6, §7

[3] = compound 0.1 μM, PAN 5 μg/ml 3-day treatment
[4] = compound 0.1 μM, PAN 5 μg/ml 5-day treatment
[5] = compound 1 μM, PAN 5 μg/ml 3-day treatment
[6] = compound 1 μM, PAN 5 μg/ml 5-day treatment
[7] = compound 10 μM, PAN 5 μg/ml 3-day treatment
[8] = compound 10 μM, PAN 5 μg/ml 5-day treatment
[9] = compound 0.01 μM, PAN 5 μg/ml 3-day treatment
[10] = compound 0.01 μM, PAN 5 μg/ml 5-day treatment
[11] = compound 100 μM, PAN 5 μg/ml 3-day treatment
[12] = compound 100 μM, PAN 5 μg/ml 5-day treatment

| Compound | viability at 3 days, 5 μg/ml ([1]; 5 μg/ml PAN for 3 days) [%] | viability at 5 days, 5 μg/ml ([1]; 5 μg/ml PAN for 5 days) [%] | CIHP-1 proliferation by CTG, percentage compared to DMSO control (without PAN) [2, 3] [%] | CIHP-1 proliferation by CTG, percentage compared to DMSO control (without PAN) [2, 4] [%] | CIHP-1 proliferation by CTG, percentage compared to DMSO control (without PAN) [2, 5] [%] | CIHP-1 proliferation by CTG, percentage compared to DMSO control (without PAN) [2, 6] [%] | CIHP-1 proliferation by CTG, percentage compared to DMSO control (without PAN) [2, 7] [%] | CIHP-1 proliferation by CTG, percentage compared to DMSO control (without PAN) [2, 8] [%] | protection to PAN-injured podocytes ([2]; 0.01 to 100 μM, 3 days of PAN exposure) | improvement of podocyte viability ([2]; 0.01 to 100 μM, after 5 days of PAN injury) | CIHP-1 proliferation by CTG, percentage compared to DMSO control (without PAN) [2, 9] [%] | CIHP-1 proliferation by CTG, percentage compared to DMSO control (without PAN) [2, 10] [%] | CIHP-1 proliferation by CTG, percentage compared to DMSO control (without PAN) [2, 11] [%] | CIHP-1 proliferation by CTG, percentage compared to DMSO control (without PAN) [2, 12] [%] | concentration at which toxicity to the podocyte cells was observed ([2]; human, 3 days) [µM] |
| --- | --- | --- | --- | --- | --- | --- | --- | --- | --- | --- | --- | --- | --- | --- | --- |
| CN(C)c1ncnc2c1ncn2[C@@H]1O[C@H](CO)[C@@H](N)[C@H]1O [PAN, puromycin aminonucleoside] | 70 to 80 | 30 to 40 | – | – | – | – | – | – | – | – | – | – | – | – | – |
| C[C@@H]1C[C@H]2[C@@H]3CCC4=CC(=O)C=C[C@]4(C)[C@@]3(F)[C@@H](O)C[C@]2(C)[C@@]1(O)C(=O)CO [dexamethasone] | – | – | 79.9 | 34.2 | 73.9 | 34.9 | 74.7 | 33.6 | – | – | – | – | – | – | – |
| COc1ccc(Oc2cc(N(C)CCOc3ccc(CC4SC(=O)NC4=O)cc3)ncn2)cc1 (centres unmarked) [lobeglitazone, 5-(4-(2-((6-(4-Methoxyphenoxy)pyrimidin-4-yl)(methyl)amino)ethoxy)benzyl) thiazolidine-2,4-dione] | – | – | 99.9 | 33.0 | 103.3 | 32.8 | 105 | 33.7 | significant protection | did not show significant improvement | 102.7 | 31.0 | 19.9 | 6.2 | 100 |
| CCc1ccc(CCOc2ccc(CC3SC(=O)NC3=O)cc2)nc1 (centres unmarked) [pioglitazone] | – | – | 101.3 | 38.3 | 97.3 | 30.0 | 94.3 | 33.4 | – | – | 102.4 | 35.2 | 90.9 | 22.4 | – |
| CN(CCOc1ccc(CC2SC(=O)NC2=O)cc1)c1ccccn1 (centres unmarked) [rosiglitazone] | – | – | 76.0 | 32.7 | 74.5 | 33.6 | 69.2 | 29.1 | – | – | 72.4 | 32.6 | 69.6 | 15.0 | – |

From patent publication US20240180908A1, “TREATMENT OF KIDNEY DISEASES” (ACLIPSE ONE, INC., priority 2021, published 2024)
